{
  "source": "patent US11642346B2",
  "about": "“Combination therapy for treating cancer” (Epizyme, Inc., priority 2017, dated 2023)",
  "key": {"CHLA-266 cells [1]": {"test_system": "CHLA-266 cells", "assay": "Combination of tazemetostat with other agents, pretreatment model, luminescent cell viability (ATP) assay", "type": "cell-based", "conditions": "pretreatment model: 4 days tazemetostat, then 4 days agent alone or with tazemetostat, synergy by Loewe Volume, Fa-CI plots", "experimental": "(§1) Proliferation data was read for luminescence. Calculations of synergy were performed using the Loewe Volume (Chalice Software) and Fa-CI plots were generated with Calcusyn."}, "BT-12 cells [2]": {"test_system": "BT-12 cells", "assay": "Combination of tazemetostat with other agents, pretreatment model, luminescent cell viability (ATP) assay", "type": "cell-based", "conditions": "pretreatment model: 4 days tazemetostat, then 4 days agent alone or with tazemetostat, synergy by Loewe Volume, Fa-CI plots", "experimental": "as §1"}, "AT/RT and MRT cell lines": {"test_system": "AT/RT and MRT cell lines", "assay": "In vitro combination studies of tazemetostat in a panel of AT/RT and MRT cell lines", "type": "cell-based", "conditions": "cell line models of AT/RT and MRT"}, "A204 cells": {"test_system": "A204 cells", "assay": "Combination of tazemetostat with other agents, co-treatment model, luminescent cell viability (ATP) assay", "type": "cell-based", "conditions": "grown for seven days", "source_text": "(§2) Proliferation data was read for luminescence."}, "G401 cells": {"test_system": "G401 cells", "assay": "Combination of tazemetostat with other agents, co-treatment model, luminescent cell viability (ATP) assay", "type": "cell-based", "conditions": "grown for seven days", "source_text": "as §2"}, "CHLA-266 cells [3]": {"test_system": "CHLA-266 cells", "assay": "Antiproliferative activity of tazemetostat, 2D culture, luminescent cell viability assay", "type": "cell-based", "conditions": "0.08-10 μM, days 4, 6, 7, 11 and 15", "experimental": "(§3) Cell viability was measured in a luminescent cell viability assay and is represented by luminescence counts."}, "BT-12 cells [4]": {"test_system": "BT-12 cells", "assay": "Antiproliferative activity of tazemetostat, 2D culture, luminescent cell viability assay", "type": "cell-based", "conditions": "0.08-10 μM, days 4, 6, 7, 11 and 15", "experimental": "as §3"}, "[5]": {"test_system": "atypical teratoid rhabdoid tumor (AT/RT) cells", "assay": "Tazemetostat pre-treatment followed by X-ray irradiation, 11 day clonogenic assay", "type": "cell-based", "conditions": "primed seven days, X-ray 2 Gy"}, "MRT": {"test_system": "MRT", "conditions": "preclinical models of MRT; cited from earlier work"}},
  "data": [
    {"compound": "COc1cc(Nc2ncc3c(n2)-c2ccc(Cl)cc2C(c2c(F)cccc2OC)=NC3)ccc1C(=O)O", "note": "[Alisertib]", "values": [
      {"measurement": "Combination treatment with tazemetostat, CHLA-266", "setting": "CHLA-266 cells [1]", "result": "Synergy"},
      {"measurement": "Combination treatment with tazemetostat, CHLA-266", "setting": "CHLA-266 cells [1]; listed as alisertib", "result": "synergy"},
      {"measurement": "Combination treatment with tazemetostat, BT-12", "setting": "BT-12 cells [2]", "result": "Synergy"},
      {"measurement": "Combination treatment with tazemetostat, BT-12", "setting": "BT-12 cells [2]; listed as alisertib", "result": "synergy"},
      {"measurement": "Antiproliferative effect of combination with tazemetostat", "setting": "AT/RT and MRT cell lines", "result": "Synergistic activity"},
      {"measurement": "Combination treatment with tazemetostat, A204", "setting": "A204 cells", "result": "Additive"},
      {"measurement": "Combination treatment with tazemetostat, A204", "setting": "A204 cells; listed as alisertib", "result": "synergy"},
      {"measurement": "Combination treatment with tazemetostat, G401", "setting": "G401 cells", "result": "Additive"},
      {"measurement": "Combination treatment with tazemetostat, G401", "setting": "G401 cells; listed as alisertib", "result": "synergy"}
    ]},
    {"compound": "N.N.O=C([O-])C1(C(=O)[O-])CCC1.[Pt+2]", "note": "[Carboplatin]", "values": [
      {"measurement": "Combination treatment with tazemetostat, CHLA-266", "setting": "CHLA-266 cells [1]", "result": "Additive"},
      {"measurement": "Combination treatment with tazemetostat, BT-12", "setting": "BT-12 cells [2]", "result": "Additive"},
      {"measurement": "Combination treatment with tazemetostat, A204", "setting": "A204 cells", "result": "Additive"}
    ]},
    {"compound": "Nc1ccn([C@@H]2O[C@H](CO)[C@@H](O)[C@@H]2O)c(=O)n1", "note": "[Cytarabine/Ara-C, Cytarabine]", "values": [
      {"measurement": "Combination treatment with tazemetostat, CHLA-266", "setting": "CHLA-266 cells [1]", "result": "Additive"},
      {"measurement": "Combination treatment with tazemetostat, BT-12", "setting": "BT-12 cells [2]", "result": "Synergy"},
      {"measurement": "Combination treatment with tazemetostat, A204", "setting": "A204 cells", "result": "Additive"},
      {"measurement": "Combination treatment with tazemetostat, G401", "setting": "G401 cells", "result": "Additive"}
    ]},
    {"compound": "COc1cccc2c1C(=O)c1c(O)c3c(c(O)c1C2=O)C[C@@](O)(C(=O)CO)C[C@@H]3O[C@H]1C[C@H](N)[C@H](O)[C@H](C)O1", "note": "[Doxorubicin]", "values": [
      {"measurement": "Combination treatment with tazemetostat, CHLA-266", "setting": "CHLA-266 cells [1]", "result": "Synergy"},
      {"measurement": "Combination treatment with tazemetostat, CHLA-266", "setting": "CHLA-266 cells [1]; listed as doxorubicin", "result": "synergy"},
      {"measurement": "Combination treatment with tazemetostat, BT-12", "setting": "BT-12 cells [2]", "result": "Synergy"},
      {"measurement": "Combination treatment with tazemetostat, BT-12", "setting": "BT-12 cells [2]; listed as doxorubicin", "result": "synergy"},
      {"measurement": "Antiproliferative effect of combination with tazemetostat", "setting": "AT/RT and MRT cell lines", "result": "Synergistic activity"},
      {"measurement": "Combination treatment with tazemetostat, A204", "setting": "A204 cells", "result": "Additive"},
      {"measurement": "Combination treatment with tazemetostat, A204", "setting": "A204 cells; listed as doxorubicin", "result": "synergy"},
      {"measurement": "Combination treatment with tazemetostat, G401", "setting": "G401 cells", "result": "Additive"},
      {"measurement": "Combination treatment with tazemetostat, G401", "setting": "G401 cells; listed as doxorubicin", "result": "synergy"}
    ]},
    {"compound": "Nc1ccccc1NC(=O)c1ccc(CNC(=O)OCc2cccnc2)cc1", "note": "[Entinostat]", "values": [
      {"measurement": "Combination treatment with tazemetostat, CHLA-266", "setting": "CHLA-266 cells [1]", "result": "Synergy"},
      {"measurement": "Combination treatment with tazemetostat, CHLA-266", "setting": "CHLA-266 cells [1]; listed as entinostat", "result": "synergy"},
      {"measurement": "Combination treatment with tazemetostat, BT-12", "setting": "BT-12 cells [2]", "result": "Synergy"},
      {"measurement": "Combination treatment with tazemetostat, BT-12", "setting": "BT-12 cells [2]; listed as entinostat", "result": "synergy"},
      {"measurement": "Antiproliferative effect of combination with tazemetostat", "setting": "AT/RT and MRT cell lines", "result": "enhanced the antiproliferative effect"},
      {"measurement": "Combination treatment with tazemetostat, A204", "setting": "A204 cells", "result": "Additive"},
      {"measurement": "Combination treatment with tazemetostat, A204", "setting": "A204 cells; listed as entinostat", "result": "synergy"},
      {"measurement": "Combination treatment with tazemetostat, G401", "setting": "G401 cells", "result": "Synergy"},
      {"measurement": "Combination treatment with tazemetostat, G401", "setting": "G401 cells; listed as entinostat", "result": "synergy"}
    ]},
    {"compound": "COc1cc([C@@H]2c3cc4c(cc3[C@@H](O[C@@H]3O[C@@H]5CO[C@@H](C)O[C@H]5[C@H](O)[C@H]3O)[C@H]3COC(=O)[C@H]23)OCO4)cc(OC)c1O", "note": "[Etoposide]", "values": [
      {"measurement": "Combination treatment with tazemetostat, CHLA-266", "setting": "CHLA-266 cells [1]", "result": "Additive"},
      {"measurement": "Combination treatment with tazemetostat, BT-12", "setting": "BT-12 cells [2]", "result": "Additive"},
      {"measurement": "Combination treatment with tazemetostat, A204", "setting": "A204 cells", "result": "Additive"},
      {"measurement": "Combination treatment with tazemetostat, G401", "setting": "G401 cells", "result": "Synergy"}
    ]},
    {"compound": "CO[C@H]1C[C@@H]2CC[C@@H](C)[C@@](O)(O2)C(=O)C(=O)N2CCCC[C@H]2C(=O)O[C@H]([C@H](C)C[C@@H]2CC[C@@H](OCCO)[C@H](OC)C2)CC(=O)[C@H](C)/C=C(\\C)[C@@H](O)[C@@H](OC)C(=O)[C@H](C)C[C@H](C)/C=C/C=C/C=C/1C", "note": "[Everolimus]", "values": [
      {"measurement": "Combination treatment with tazemetostat, CHLA-266", "setting": "CHLA-266 cells [1]", "result": "Synergy"},
      {"measurement": "Combination treatment with tazemetostat, BT-12", "setting": "BT-12 cells [2]", "result": "Synergy"},
      {"measurement": "Combination treatment with tazemetostat, A204", "setting": "A204 cells", "result": "Additive"},
      {"measurement": "Combination treatment with tazemetostat, G401", "setting": "G401 cells", "result": "Additive"}
    ]},
    {"compound": "CC[C@@]1(O)C(=O)OCc2c1cc1n(c2=O)Cc2cc3c(CN(C)C)c(O)ccc3nc2-1", "note": "[Topotecan]", "values": [
      {"measurement": "Combination treatment with tazemetostat, CHLA-266", "setting": "CHLA-266 cells [1]", "result": "Synergy"},
      {"measurement": "Combination treatment with tazemetostat, BT-12", "setting": "BT-12 cells [2]", "result": "Synergy"},
      {"measurement": "Antiproliferative effect of combination with tazemetostat", "setting": "AT/RT and MRT cell lines", "result": "synergistic interactions"},
      {"measurement": "Combination treatment with tazemetostat, A204", "setting": "A204 cells", "result": "Additive"},
      {"measurement": "Combination treatment with tazemetostat, G401", "setting": "G401 cells", "result": "Synergy"}
    ]},
    {"compound": "CC[C@]1(O)C[C@H]2CN(CCc3c([nH]c4ccccc34)[C@@](C(=O)OC)(c3cc4c(cc3OC)N(C=O)[C@H]3[C@@](O)(C(=O)OC)[C@H](OC(C)=O)[C@]5(CC)C=CCN6CC[C@]43[C@@H]65)C2)C1", "note": "[Vincristine]", "values": [
      {"measurement": "Combination treatment with tazemetostat, CHLA-266", "setting": "CHLA-266 cells [1]", "result": "Synergy"},
      {"measurement": "Combination treatment with tazemetostat, CHLA-266", "setting": "CHLA-266 cells [1]; listed as vincristine", "result": "synergy"},
      {"measurement": "Combination treatment with tazemetostat, BT-12", "setting": "BT-12 cells [2]", "result": "Synergy"},
      {"measurement": "Combination treatment with tazemetostat, BT-12", "setting": "BT-12 cells [2]; listed as vincristine", "result": "synergy"},
      {"measurement": "Antiproliferative effect of combination with tazemetostat", "setting": "AT/RT and MRT cell lines", "result": "Synergistic activity"},
      {"measurement": "Combination treatment with tazemetostat, A204", "setting": "A204 cells", "result": "Synergy"},
      {"measurement": "Combination treatment with tazemetostat, A204", "setting": "A204 cells; listed as vincristine", "result": "synergy"},
      {"measurement": "Combination treatment with tazemetostat, G401", "setting": "G401 cells; listed as vincristine", "result": "synergy"}
    ]},
    {"compound": "CCN(c1cc(-c2ccc(CN3CCOCC3)cc2)cc(C(=O)NCc2c(C)cc(C)[nH]c2=O)c1C)C1CCOCC1", "note": "[tazemetostat]", "values": [
      {"measurement": "Cell death / cell viability", "setting": "CHLA-266 cells [3]", "result": "Time and dose dependent increases in cell death"},
      {"measurement": "Cell death / cell viability", "setting": "BT-12 cells [4]", "result": "Time and dose dependent increases in cell death"},
      {"measurement": "Clonogenic survival, tazemetostat priming prior to X-ray irradiation", "setting": "[5]", "result": "reduction in clonogenic survival"},
      {"measurement": "Tumor response to tazemetostat treatment", "setting": "MRT", "result": "robust tumor regressions"}
    ]}
  ]
}
